Source: a melting point compilation (Tetko et al.; mined from patent text by program, amines drawn as free bases though some values may be those of a salt)

Row | Structure (SMILES) | melting point
1 | Oc1cc(-c2ncc(C(F)(F)F)cc2Cl)ccc1Cl | 105 to 107 °C
2 | COC(=O)Cc1cn(-c2ccccc2)nc1OCc1ccc(OCc2nc(-c3ccccc3)oc2C)cc1 | 113 to 114 °C
3 | CC(=O)c1c(C)cc(=O)[nH]c1C | 160 to 162 °C
4 | C=CCSc1cn(C)cc(-c2cccc(C(F)(F)F)c2)c1=O | 74 to 75 °C
5 | C[C@H](N)C(c1ccccc1)c1ccccc1 | 76 to 77 °C
6 | FC(F)(F)CN1CCC(CNOCc2ccccc2)CC1 | 93.8 to 95.1 °C
7 | O=C(O)COc1c(-c2cccc(Cl)c2)cc(C(=O)NCCCCCCCCn2ccc3cc(F)ccc32)cc1-c1cccc(Cl)c1 | 141 to 144 °C
8 | CC1(Cl)C(=O)N(c2ccc(Cl)c(Cl)c2)N=C1C#N (configuration not stated) | 68 to 69 °C
9 | CCC(Oc1ccc(C(C)(C)CC)cc1C(C)(C)CC)C(=O)Nc1cccc(C(=O)NC2=NN(c3c(Cl)cc(Cl)cc3Cl)C(=O)C2N2CCCCC2)c1 (configuration not stated) | 186 to 190 °C
10 | Nc1nnc(-c2cccc(F)c2F)c(N)n1 | 229 to 230 °C
11 | N#Cc1nn(-c2c(Cl)cc(C(F)(F)F)cc2Cl)c(N)c1-c1ccsc1 | 210 to 212 °C
12 | CCCCCCCn1c(C)c(CC(=O)O)c2cc(OCc3ccc4ccccc4n3)ccc21 | 127 to 131 °C
13 | NC(=O)CCC1OC(=O)NC1c1cc(F)c(-n2nnc(Cc3cccs3)n2)c(F)c1 (configuration not stated) | 142 to 144 °C
14 | N#Cc1ccc(Oc2ccc(CC(=O)O)cc2)nc1 | 148 to 151 °C
15 | Cc1ccc(SCC2=NOCN2)cc1 | 85 °C
16 | CC(C)n1c(=O)n(CC#N)c2cc(-c3ncc(C(F)(F)F)cc3Cl)ccc21 | 158 to 159 °C
17 | Cn1ncc2c1-c1c(Cc3ccccc3)sc(C(=O)O)c1CC2 | > 300 °C
18 | CC(C)N1CCC(C(C(N)=O)(c2ccccc2)c2ccccc2)C1 (configuration not stated) | 110 to 112 °C
19 | O=S(=O)(NC1CC1)c1cccc(-c2cc(-c3nc(-c4ccc(C(F)(F)F)cc4)cc(C(F)(F)F)n3)ccn2)c1 | 196 °C
20 | O=C1Nc2cccnc2N(C(=O)CCN2CCNCC2)c2ccccc21 | 280 to 282 °C
21 | Sc1nc2cc3c(cc2[nH]1)COCO3 | 288 to 289 °C

Row | Structure (SMILES) | melting point
22 | CCOC(=O)N1CCC(C(=O)Cl)CC1 | 96 to 98 °C
23 | O=C(Cc1cccs1)NC1CN(C(C(=O)O)c2ccc(OC(=O)c3ccccc3)cc2)C1=O (configuration not stated) | 129 to 131 °C
24 | CC(C)(c1ccc(Oc2ccc(N=C=O)cc2)cc1)c1ccc(Oc2ccc(N=C=O)cc2)cc1 | 68 to 69 °C
25 | CC(C)CN1CCC(CCC(=O)c2cc(Cl)c(N)[nH]c2=O)CC1 | 175 °C
26 | Cc1nc(C)c(Cn2nnnc2-c2cccc(Cl)c2Cl)s1 | 174 to 175 °C
27 | CCOC(=O)C(O)c1ccc(-n2cccc2)cc1 (configuration not stated) | 126 to 128 °C
28 | CC1(C)CC(=O)C2=C(C1)NC1=C(C(=O)CC(C)(C)C1)C2c1ccc(OC(F)(F)F)cc1 | 234 °C
29 | CCCCCCCCCCCCCCCCCCCCC(NC(C)=O)(C(=O)OCC)C(=O)OCC | 76.5 to 77.5 °C
30 | Cc1ccc(S(=O)(=O)OC2=C(Br)C(=O)c3ccc4c(c3C2=O)C=CC(C)(C)O4)cc1 | 182 to 184 °C
31 | CNC(=O)N1C(=O)C(=O)c2cc(F)ccc21 | 230 to 232 °C
32 | CCC(COC)(OC)c1cccc(OCOC)c1 (configuration not stated) | 74 to 75 °C
33 | CCNc1nc(C)c(-c2ccnc(Nc3ccc4c(c3)OCO4)n2)s1 | 194 to 195 °C
34 | O=C(O)CCCC1(c2ccc(F)cc2)OCCO1 | 65 to 67 °C
35 | CCOC(=O)CNC1=NS(=O)(=O)c2ccccc21 | 166 to 167 °C
36 | CCCCN(CCCC)c1ccc(C=Cc2ccc(C=CC3=C(C#N)C(=C(C#N)C#N)OC3(c3ccccc3)C(F)(F)F)cc2)c(OC)c1 (configuration not stated) | 176 to 178 °C
37 | Cc1nc(N)sc1C(=O)OC(C)(C)C | 167 to 170 °C
38 | O=S(=O)(Nc1ccccc1Oc1ccc2ncccc2c1)c1ccc(Cl)cc1 | 151 to 152 °C
39 | COc1ccc(S(=O)(=O)C(C=CC(C)C)(CC=C(C)C)C(=O)NO)cc1 (configuration not stated) | 93 to 96 °C
40 | O=c1oc2c([N+](=O)[O-])c(O)c(O)cc2cc1-c1ccccc1 | 195 to 210 °C
41 | O=c1[nH]ncn1C(c1cccc(Cl)c1)c1ccnc2ccccc12 (configuration not stated) | 244 °C
42 | Clc1ccc(-c2nc(I)c[nH]2)cc1Cl | 206 to 207 °C

Row | Structure (SMILES) | melting point
43 | C#Cc1ccc(Oc2ccc(C(=O)C(=O)c3cccc(C(=O)C(=O)c4ccc(Oc5ccc(C#C)cc5)cc4)c3)cc2)cc1 | 120 to 121 °C
44 | CC(=O)Nc1ccc(O)cc1Cl | 128 to 129 °C
45 | CC(C)(C)CC(C)(C)NC(=O)Nc1ccccc1CCc1cc(C(C)(C)C)c(O)c(C(C)(C)C)c1 | 168 to 169 °C
46 | O=S(=O)(NCCCCOc1ccc(-n2ccnc2)cc1)c1cc(Cl)ccc1Cl | 144 to 146 °C
47 | N#Cc1ccc2nc3cscc3c(=O)n2c1 | 233 to 234 °C
48 | OC(COc1cc(-c2ccccc2)on1)CN1CCOCC1 (configuration not stated) | 123 to 124 °C
49 | N#Cc1ccc(S(=O)(=O)N2CCN(c3ccncc3)CC2)cc1 | 212 to 213 °C
50 | CCCCCCCCCCCCCCCCCC1CC(O)C(CC)C(=O)O1 (racemic) | 101 to 102 °C
51 | O=C1c2ccc([N+](=O)[O-])cc2C2(c3ccccc3)NCCN12 (configuration not stated) | 203 °C
52 | N#Cc1cnc2cc3ccccc3cc2c1Nc1ccc(F)c(Cl)c1 | 257 to 259 °C
53 | CC(C)C[C@@H](CC=O)NC(=O)[C@H](Cc1c[nH]cn1)NC(=O)[C@H](Cc1ccccc1)NC(=O)OCc1ccccc1 | 173 to 175 °C
54 | COc1ccc(N2CCSC2=N)c([N+](=O)[O-])c1 | 156 °C
55 | Nc1c(Cl)ncnc1NCc1ccc(CO)o1 | 137 °C
56 | CC(=O)OCc1cc([N+](=O)[O-])ccc1N1C(=O)c2ccc(Cl)cc2C1=O | 124 to 125 °C
57 | CCOc1ccnc(CSc2nc3ccc(C(F)(F)F)cc3[nH]2)c1C | 173 to 177 °C
58 | NS(=O)(=O)c1ccccc1C(Cl)Cl | 131 to 132 °C
59 | COc1cccc(Oc2ncccc2C#N)c1 | 66 to 68 °C
60 | c1cc(N2CCCC2)ncc1C12CCN(CC1)C2 | 119 to 121 °C
61 | CCCNC(=O)C1(CCCc2ccccc2)c2ccccc2Sc2ccccc21 | 130 to 131 °C

Second part, the molecule after the results:

Row | melting point | Structure (SMILES)
62 | 80 to 82 °C | COC1=C(OC)C(=O)C2=C(CCC(CCOc3cccnc3)CC2)C1=O
63 | 187 to 188 °C | C=C(C)C(=O)NCc1ccc(S(=O)(=O)ON=C2c3ccccc3-c3ccccc32)cc1
64 | 84 to 86 °C | FCc1cccc(C#CCCn2ncc(-c3ccc(F)cc3)n2)n1
65 | 82 to 84 °C | COc1ccc(CNc2ccc(Cl)cc2C(=O)C(F)(F)F)cc1OC
66 | 104 to 106 °C | COc1ccc(CS(=O)(=O)Cc2ccc(OC)cc2OC)c(OC)c1
67 | 254 to 256 °C | CC(=O)NC[C@H]1CN(c2ccc(C(=O)c3cnc4cc(C)ccn34)cc2)C(=O)O1
68 | 132 to 133 °C | O=S(=O)(c1ccccc1)n1cc(-c2ccnc(N[C@H]3CC[C@H](O)CC3)n2)c2ccccc21
69 | 176 to 177 °C | COc1ccc(S(=O)(=O)C2(C(=O)NO)CCN(Cc3ccc(C)cc3)CC2)cc1
70 | 137 to 139 °C | CCC1C(=O)N(CCCCN2CCN(c3ccccn3)CC2)c2cc(F)ccc21 (configuration not stated)
71 | 63 to 68 °C | CCCCc1ccc(S(=O)(=O)CC(O)(CS(=O)(=O)c2ccc(OC)cc2)C(=O)NO)cc1 (configuration not stated)
72 | 98.5 to 100 °C | Cc1ccc(S(=O)(=O)N(c2ccc(Cl)cc2[N+](=O)[O-])C2CC2)cc1
73 | 224 to 226 °C | CS(=O)(=O)c1ccc(-c2[nH]c3ccccc3c2-c2ccc(F)cc2)cc1
74 | 165 to 166 °C | O=C1CCC(c2ccc(O)cc2)CC1
75 | 200 to 201 °C | COc1ccc(C(=O)Nc2ccc(C(C)=O)cc2)cc1C12CC3CC(CC(C3)C1)C2
76 | 209 °C | Cn1cc(-c2cc(-c3ccsc3)ccn2)n(-c2ccc(C(C)(C)C#N)cc2)c1=O
77 | 86 to 88 °C | COc1ccc(-c2nc3c(OC)cccc3s2)cc1
78 | 177 to 179 °C | COc1ccc(Nc2ncnc3cc(Cl)ccc23)cc1
79 | 133 °C | O=C(NC1CCCC1)c1ccc(F)c2c1CC(N(CCCc1c[nH]c3ccc(F)cc13)C1CCC1)CO2 (configuration not stated)

Row | melting point | Structure (SMILES)
80 | 178 °C | C=CCOC(=O)c1ccc(-c2nn(-c3ccc(C(=O)ON4C(=O)CCC4=O)cc3)c3ccccc23)cc1
81 | 208 to 211 °C | COc1ccc(N2CCN(c3c(C)c(C)c4c(c3C)C(c3ccc(C(F)(F)F)cc3)C(C)(C)O4)CC2)cc1 (configuration not stated)
82 | 48 to 51 °C | COc1ccc(C2CC(=O)N(C(=S)NCc3ccc(F)cc3)N2C)cc1OC1CCCC1 (configuration not stated)
83 | 71 to 72 °C | COc1ccc(CN2C(=O)CC2COS(C)(=O)=O)c(OC)c1 (configuration not stated)
84 | 190 °C | Cc1ccc(O)c2c1C(C(=O)N(Cc1ccc(N(C)C)cc1)c1ccc(C(C)C)cc1)CCC2 (configuration not stated)
85 | 113 to 115 °C | COc1cccc(COc2cc3c(cc2-c2cc(C=CC(=O)O)ccc2O)C(C)(C)CCC3(C)C)c1
86 | 82.5 to 84 °C | CC(C)(C)SC1CC(=O)N1CC(=O)OCc1ccc([N+](=O)[O-])cc1 (configuration not stated)
87 | 90 to 93 °C | CCOC(=O)CCc1ccc2c(c1)CC(CNS(=O)(=O)c1ccc(Cl)cc1)C2 (configuration not stated)
88 | > 230 °C | O=C1Nc2ccc(Cl)cc2C(c2ccccc2)N1C1CCN(Cc2ccccc2)CC1 (configuration not stated)
89 | 114 to 115 °C | CC1(C)CCN(C(=O)NCc2ccccc2)c2cc(C#N)ccc21
90 | 124 to 125 °C | CCC(=O)NC1=NN(c2ccccc2)C(c2ccc(C)cc2)C1 (configuration not stated)
91 | 80 to 83 °C | COC1=C(OC)C(=O)C2=C(CC(CCCCOc3ccc(C(=O)N(C)C)cc3)C2)C1=O
92 | 221 to 223 °C | Cn1cc(C(=O)NCc2ccc(Cl)cc2)c(=O)c2cc(CN3CC=C(F)CC3)ccc21
93 | 130 °C | COc1cc2c(c(OC)c1OC)COc1c(C(F)(F)F)nn(-c3ccc(S(N)(=O)=O)cc3)c1-2
94 | 190 to 192 °C | COc1ccc(Sc2c(C(=O)O)[nH]c3cc(C)ccc23)cc1
95 | 120 to 122 °C | COc1ccc(C(=Cc2cc(OC)c(OC)cc2[N+](=O)[O-])C(=O)N2CCCC2C(=O)O)cc1 (configuration not stated)
96 | 96 to 97 °C | O=C(O)Cc1ccc2c(c1)C(=O)c1ccccc1CS2
97 | 174 °C | CCn1c(=O)n(CCN2CC[C@H](NC(=O)c3cc(Cl)c(N)c4c3OCC4)[C@H](OC)C2)c2ccccc21 (relative stereo)
